{"source": "patent US20090291857A1", "about": "“METHODS TO IDENTIFY INHIBITORS OF THE UNFOLDED PROTEIN RESPONSE” (THE BOARD OF TRUSTEES OF THE LELAND STANFORD JUNIOR …, priority 2006, published 2009)", "target": "T1, IRE1α (Homo sapiens, UniProt O75460)", "T1 construct": "endogenous in cells; host or cells: HT1080", "T1 sequence (O75460 19-977)": "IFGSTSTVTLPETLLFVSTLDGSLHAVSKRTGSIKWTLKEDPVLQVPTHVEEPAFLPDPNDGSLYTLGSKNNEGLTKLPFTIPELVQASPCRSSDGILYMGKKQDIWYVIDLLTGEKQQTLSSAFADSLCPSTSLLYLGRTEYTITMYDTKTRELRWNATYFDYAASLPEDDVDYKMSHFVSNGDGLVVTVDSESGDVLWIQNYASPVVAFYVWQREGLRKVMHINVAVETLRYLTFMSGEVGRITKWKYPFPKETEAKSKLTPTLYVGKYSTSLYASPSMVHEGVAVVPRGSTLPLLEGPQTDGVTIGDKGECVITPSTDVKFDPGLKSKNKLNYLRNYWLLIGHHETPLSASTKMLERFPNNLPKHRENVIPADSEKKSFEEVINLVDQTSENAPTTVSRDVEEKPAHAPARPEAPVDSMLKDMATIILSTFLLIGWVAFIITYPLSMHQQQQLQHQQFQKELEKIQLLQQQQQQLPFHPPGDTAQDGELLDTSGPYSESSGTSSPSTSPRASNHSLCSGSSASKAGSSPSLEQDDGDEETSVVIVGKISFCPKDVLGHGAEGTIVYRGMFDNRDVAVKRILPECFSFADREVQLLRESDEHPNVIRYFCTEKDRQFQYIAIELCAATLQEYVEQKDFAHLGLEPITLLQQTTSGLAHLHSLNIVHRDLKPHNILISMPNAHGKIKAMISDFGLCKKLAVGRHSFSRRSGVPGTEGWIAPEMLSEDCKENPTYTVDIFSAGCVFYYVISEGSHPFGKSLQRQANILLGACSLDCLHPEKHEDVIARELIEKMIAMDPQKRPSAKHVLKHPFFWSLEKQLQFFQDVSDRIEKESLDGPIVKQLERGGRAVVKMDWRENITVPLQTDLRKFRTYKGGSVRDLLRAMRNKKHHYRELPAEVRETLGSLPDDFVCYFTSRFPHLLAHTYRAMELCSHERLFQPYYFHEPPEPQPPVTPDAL", "assay": "IRE1α expression and kinase function (phospho-IRE1α immunoblot)", "assay_type": "cell-based", "procedure": "Cells (2×10^6) were cultured in 10-cm dishes, collected using a cell scraper at 4° C., and lysed by addition of 150 μl cell lysis buffer [50 mM Tris pH 7.4, 150 mM NaCl, 10% glycerol, 0.5% Triton X-100. 0.5% NP-40, 2 mM Na3VO4, 20 mM beta-glycerophosphate, 10 mM NaF, 1 mM DTT, 1 mM PMSF). Lysates were centrifuged for 5 min at 10,000×g, and proteins (˜40 μg) were resolved by SDS-PAGE followed by semi-dry transfer to nitrocellulose membranes. Membranes were blocked in TBS-5% milk supplemented with 0.1% Tween-20. The blots were then probed overnight with relevant antibodies, washed, and incubated for 2 hours with species-specific secondary antibodies conjugated to horseradish peroxidase. After washing in block solution, immunoreactive material was detected by enhanced chemiluminescence (SuperSignal West Dura Extended, Pierce, Inc., Rockville, Ill.).\nHT1080 cells were exposed to DMSO vehicle (lane 1), irestatin 9389 (2.5 μM; lane 2) for 16 hours or Tm (5 μg/ml; lane 3) for 8 hours. Following treatments, cells were harvested, lysed, and analyzed by immunoblotting using anti-Grp78 antibody (top) or anti-actin (bottom) as a loading control. […] Cell lysates were analyzed by Western immunoblotting using anti-IRE1α (bottom) or anti-phospho-IRE1α antibodies (top). […] Lysates were analyzed by Western blot using antisera specific for phospho-JNK1 (top) or total JNK1 (bottom). […]"}
{"smiles": "Cc1csc(NC(=O)CSc2nc3c(c(C(F)(F)F)c2C#N)CCC3)n1", "note": "[Compound 9389]", "values": [{"measurement": "total level of IRE1α", "setting": "2.5 μM, 16 hours", "result": "no significant changes"}, {"measurement": "levels of phospho-IRE1α after Tm", "setting": "16 hours preincubation 2.5 μM, then Tm 5 μg/ml", "result": "rapid increase in levels of phospho-IRE1α"}]}
